# Activity calls are given as the source filed them. No cut-off for these calls is given here.
# What was measured:
# [1] = biological target: T1, Cannabinoid receptor 1 (Homo sapiens, UniProt P21554); assay: Antagonist activity at human CB1 receptor expressed in HEK293 cells assessed as inhibition of Eu-GTP binding; type: cell-based
# [2] = test system: HEK293; assay: Selectivity ratio of IC50 for human CB2 receptor to human CB1 receptor expressed in HEK293 cells; type: cell-based
# [3] = biological target: Cannabinoid receptor 2 (Homo sapiens, UniProt P34972); assay: Displacement of [3H]CP-55940 from human CB2 receptor expressed in HEK293 cells; type: cell-based
# Sequence of Cannabinoid receptor 2 (P34972 whole entry): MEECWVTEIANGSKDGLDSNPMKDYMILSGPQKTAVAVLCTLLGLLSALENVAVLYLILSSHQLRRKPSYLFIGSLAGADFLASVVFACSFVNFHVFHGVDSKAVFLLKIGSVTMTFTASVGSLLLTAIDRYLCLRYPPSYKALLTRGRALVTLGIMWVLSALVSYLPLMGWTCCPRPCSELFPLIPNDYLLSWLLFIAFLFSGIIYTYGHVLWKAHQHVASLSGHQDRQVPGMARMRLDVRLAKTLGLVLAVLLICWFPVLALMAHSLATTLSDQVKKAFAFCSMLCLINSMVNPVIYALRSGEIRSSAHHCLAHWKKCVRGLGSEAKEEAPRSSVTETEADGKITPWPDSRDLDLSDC
# [4] = biological target: T1, Cannabinoid receptor 1; assay: Antagonist activity at human CB1 receptor expressed in HEK293 cells assessed as effect on [35S]gammaGTP binding relative to control; type: cell-based
# [5] = biological target: T1, Cannabinoid receptor 1; assay: biochemical; type: cell-based, HEK293
# Description: Displacement of [3H]CP-55940 from human CB1 receptor expressed in HEK293 cells
# [6] = biological target: T1, Cannabinoid receptor 1; assay: Displacement of [3H]SR141716A from human CB1 receptor expressed in HEK293 cells; type: cell-based
# [7] = biological target: T1, Cannabinoid receptor 1; assay: Agonist activity at human CB1 receptor expressed in HEK293 cells assessed as increase in [35S]gammaGTP binding relative to control; type: cell-based
# T1 sequence (P21554 whole entry): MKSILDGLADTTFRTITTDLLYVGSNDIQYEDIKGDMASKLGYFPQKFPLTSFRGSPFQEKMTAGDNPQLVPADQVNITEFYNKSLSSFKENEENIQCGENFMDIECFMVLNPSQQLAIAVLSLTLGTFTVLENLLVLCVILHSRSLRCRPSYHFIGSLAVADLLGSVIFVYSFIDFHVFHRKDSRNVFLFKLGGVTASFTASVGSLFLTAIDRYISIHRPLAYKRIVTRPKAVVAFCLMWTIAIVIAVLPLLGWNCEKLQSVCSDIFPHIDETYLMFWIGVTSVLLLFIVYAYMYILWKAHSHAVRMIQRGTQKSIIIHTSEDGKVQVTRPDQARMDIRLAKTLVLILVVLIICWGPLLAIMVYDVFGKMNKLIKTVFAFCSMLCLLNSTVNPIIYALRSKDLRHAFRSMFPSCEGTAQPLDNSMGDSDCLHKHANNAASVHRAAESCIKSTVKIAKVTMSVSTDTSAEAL
Structure (SMILES),EC50 [1] [nM],Ratio IC50 [2],IC50 [3] [nM],Activity [4],IC50 [5] [nM],IC50 [6] [nM],Activity [7]
Cc1c(C(=O)NN2CC3CCCC3C2)nn(-c2ccc(Cl)cc2Cl)c1-c1ccc(C#CC2CC2)s1 (stereo unspecified),105,272,5720,Active,21,–,–
CCCC#Cc1ccc(-c2c(C)c(C(=O)NN3CC4CCCC4C3)nn2-c2ccc(Cl)cc2Cl)s1 (stereo unspecified),19.2,99,785,Active,7.9,–,–
CCCC#Cc1ccc(-c2c(CC)c(C(=O)NN3CCCCCC3)nn2-c2ccc(Cl)cc2Cl)s1,16.5,34,310,–,8.9,1.2,–
Cc1c(C(=O)NN2CCCCC2)nn(-c2ccc(Cl)cc2Cl)c1-c1ccc(C#CCOC(C)C)s1,57.4,76,1760,–,23.2,–,Active
Cc1c(C(=O)NN2CCCCC2)nn(-c2ccc(Cl)cc2Cl)c1-c1ccc(C#CC2CC2)s1,72.9,70,4230,Active,60.4,–,–
CCC#Cc1ccc(-c2c(C)c(C(=O)NN3CC4CCCC4C3)nn2-c2ccc(Cl)cc2Cl)s1 (stereo unspecified),35.5,33,921,Active,28.3,–,–
Cc1c(C(=O)NN2CCCCCC2)nn(-c2ccc(Cl)cc2Cl)c1-c1ccc(C#CCC(C)C)s1,14.6,139,688,–,4.9,1.2,Active
CCC/C=C/c1ccc(-c2c(C)c(C(=O)NN3CC4CCCC4C3)nn2-c2ccc(Cl)cc2Cl)s1 (stereo unspecified),71.4,197,5410,–,27.5,–,–
Cc1c(C(=O)NN2CCCCCC2)nn(-c2ccc(Cl)cc2Cl)c1-c1ccc(Br)s1,64.9,17,705,–,40.7,–,–
Cc1c(C(=O)NN2CCCCC2)nn(-c2ccc(Cl)cc2Cl)c1-c1ccc(Cl)s1,147,26,1290,–,50.2,–,–
Cc1c(C(=O)NN2CC3CCCC3C2)nn(-c2ccc(Cl)cc2Cl)c1-c1ccc(C#CC2CCCC2)s1 (stereo unspecified),99.3,86,902,–,10.5,–,Active
CCCCC#Cc1ccc(-c2c(C)c(C(=O)NC3CCCCC3)nn2-c2ccc(Cl)cc2Cl)s1,43.9,133,278,–,2.1,–,Active
Cc1c(C(=O)NN2CCCCC2)nn(-c2ccc(Cl)cc2Cl)c1-c1ccc(C#CC2CCCC2)s1,24.5,255,1810,–,7.1,–,Active
Cc1c(C(=O)NN2CCCCC2)nn(-c2ccc(Cl)cc2Cl)c1-c1ccc(C#CCOc2ccccc2)s1,18.7,164,7030,Active,43,–,–
CCc1c(C(=O)NN2CCCCC2)nn(-c2ccc(Cl)cc2Cl)c1-c1ccc(C#CCC(C)C)s1,23,236,1210,–,5.1,–,–
CCCC#Cc1ccc(-c2c(C)c(C(=O)NN3CCCCCC3)nn2-c2ccc(Cl)cc2Cl)s1,14.1,214,1500,Active,7,1.2,–
CCC#Cc1ccc(-c2c(C)c(C(=O)NN3CCCCC3)nn2-c2ccc(Cl)cc2Cl)s1,51.4,66,4330,Active,65.4,–,–
Cc1c(C(=O)NN2CCCCC2)nn(-c2ccc(Cl)cc2Cl)c1-c1ccc(C#CC2CCCCC2)s1,442,216,1580,–,7.3,–,Active
CCC/C=C/c1ccc(-c2c(C)c(C(=O)NN3CCCCC3)nn2-c2ccc(Cl)cc2Cl)s1,146,178,3840,–,21.6,–,–
CCCCC#Cc1ccc(-c2c(C)c(C(=O)NN3CCCCCC3)nn2-c2ccc(Cl)cc2Cl)s1,4.8,332,564,–,1.7,–,Active
CCCCCc1ccc(-c2c(C)c(C(=O)NN3CCCCC3)nn2-c2ccc(Cl)cc2Cl)s1,75.9,109,6350,–,57.9,–,–

# From ChEMBL document CHEMBL1140049, “Bioisosteric replacement of the pyrazole 5-aryl moiety of N-(piperidin-1-yl)-5-(4-chlorophenyl)-1-(2,4-dichlorophenyl)-4-methyl-1H-pyrazole-3-carboxamide (SR141716A). A novel series of alkynylthiophenes as potent and selective cannabinoid-1 receptor antagonists” (J Med Chem, 2008)
